Assay results: patent US20260297060A1, “COMPOUNDS FOR THE DEGRADATION OF MUTANT BRAF” (C4 THERAPEUTICS, INC., priority 2023, published 2026)

Tested on: A375 tumors
Assay: In vivo efficacy, A375 xenograft tumor volume (Example 7)
Set-up: species or system human A375 melanoma xenograft in female BALB/c nude mice
Conditions: oral, FIG. 14; for tumor regressions in the xenograft model: 10 mg/kg BID, A375 xenografts; for antitumor response compared with comparators dabrafenib or encorafenib: A375 human melanoma xenografts
Experimental: FIG. 14 is a line graph showing in vivo efficacy of dabrafenib, Compound 141, Compound 118, Compound 156, and Compound 180 in the treatment of female BALB/c nude mice bearing A375 tumors. Mice were treated with vehicle (10 μL/g, p.o., BID), dabrafenib (100 mg/kg, p.o., QD), Compound 141 (10 mg/kg, p.o., QD), Compound 141 (10 mg/kg, p.o., BID), Compound 118 (10 mg/kg, p.o., BID), Compound 156 (10 mg/kg, p.o., BID), or Compound 180 (10 mg/kg, p.o., BID) by oral gavage (p.o.). Data points represent group mean change in tumor volume. Error bars represent standard error of the mean (SEM). The x-axis is the time measured in days and the y-axis is A375 tumor volume measured in mm^3. The experiment was conducted as described in Example 7.

CCN(C)S(=O)(=O)Nc1ccc(F)c(Oc2ccc3ncc(OCC4CCN(C5CCC(c6cc7c(cc6F)c(N6CCC(=O)NC6=O)nn7C)CC5)CC4)nc3c2)c1C#N (single isomer, unassigned) [Compound 118, 7-[2-cyano-3-[[ethyl(methyl)sulfamoyl]amino]-6-fluoro-phenoxy]-2-[[1-[4-[3-(2,4-dioxohexahydropyrimidin-1-yl)-5-fluoro-1-methyl-indazol-6-yl]cyclohexyl]-4-piperidyl]methoxy]quinoxaline]
tumor regressions in the xenograft model: profound tumor regressions | antitumor response compared with comparators dabrafenib or encorafenib: more robust antitumor response

CCN(C)S(=O)(=O)Nc1ccc(F)c(Oc2ccc3ncc(C4CC5(CCN(C6CCC(c7cc8c(cc7F)c(N7CCC(=O)NC7=O)nn8C)CC6)CC5)C4)nc3c2)c1C#N (single isomer, unassigned) [Compound 180, 7-[2-cyano-3-[[ethyl(methyl)sulfamoyl]amino]-6-fluoro-phenoxy]-2-[7-[4-[3-(2,4-dioxohexahydropyrimidin-1-yl)-5-fluoro-1-methyl-indazol-6-yl]cyclohexyl]-7-azaspiro[3.5]nonan-2-yl]quinoxaline]
tumor regressions in the xenograft model: profound tumor regressions | antitumor response compared with comparators dabrafenib or encorafenib: more robust antitumor response

CCN(C)S(=O)(=O)Nc1ccc(F)c(Oc2ccc3ncn(C4CC5(CCN(C6CC7(C6)CN(c6cc8c(cc6F)c(N6CCC(=O)NC6=O)nn8C)C7)CC5)C4)c(=O)c3c2)c1C#N (centres unmarked) [Compound 141, 6-[2-cyano-3-[[ethyl(methyl)sulfamoyl]amino]-6-fluoro-phenoxy]-3-[7-[2-[3-(2,4-dioxohexahydropyrimidin-1-yl)-5-fluoro-1-methyl-indazol-6-yl]-2-azaspiro[3.3]heptan-6-yl]-7-azaspiro[3.5]nonan-2-yl]-4-oxo-quinazoline]
tumor regressions in the xenograft model: profound tumor regressions | antitumor response compared with comparators dabrafenib or encorafenib: more robust antitumor response

CCN(C)S(=O)(=O)Nc1ccc(F)c(Oc2ccc3ncn(C4CC5(CCN(C6CCN(c7cc8c(cc7F)c(N7CCC(=O)NC7=O)nn8C)CC6)CC5)C4)c(=O)c3c2)c1C#N [Compound 156, 6-[2-cyano-3-[[ethyl(methyl)sulfamoyl]amino]-6-fluoro-phenoxy]-3-[7-[1-[3-(2,4-dioxohexahydropyrimidin-1-yl)-5-fluoro-1-methyl-indazol-6-yl]-4-piperidyl]-7-azaspiro[3.5]nonan-2-yl]-4-oxo-quinazoline]
tumor regressions in the xenograft model: profound tumor regressions | antitumor response compared with comparators dabrafenib or encorafenib: more robust antitumor response
